Legend:
H929 cells [1] = assay: Cytochrome c release in H929 cells; format: cell-based, human; conditions: intact H929 cells, within 4 h
Procedure: (§1) Figure 4 Indole-2-carboxylic acids induce the hallmarks of apoptosis in MCL-1-dependent cancer cell line H929. (a) Digitonin-permeabilized H929 cells were treated with 10 μM BH3 peptides for 4 h, and intact H929 cells were incubated with increasing concentrations (0.1–10 μM) of A-1208746 for 4 h before assessing the levels of cytochrome c released into the cytosol. (b) H929 and RS4;11 cells were incubated with increasing concentrations of MCL-1 inhibitors or the BCL-2-selective inhibitor ABT-199 (venetoclax) for 48 h before determining cell viability. Cell killing IC50s are plotted with each value representing the mean of three separate experiments. […]
(§2) H929 cells were cultured in RPMI 1640 (Invitrogen Corp., Grand Island, NY, USA) supplemented with 10% fetal bovine serum (Invitrogen), 1% sodium pyruvate, 25 mM HEPES, 4.5 g/l glucose, and 1% penicillin/streptomycin (Sigma) and maintained in a humidified chamber at 37 °C containing 5% CO2. […] Following treatment, the hallmarks of apoptosis (activation of caspase-3/-7, mitochondrial membrane depolarization, and phosphatidylserine externalization) were measured using the IntelliCyt (Albuquerque, NM, USA) MultiCyt 4-Plex Apoptosis Screening Kit according to the manufacturer's instructions and read by flow cytometry using a HTFC screening system (IntelliCyt). […] Data were expressed as the percentage of singlet cells. […]

Bak-/- Bax-/- MEFs = assay: Cell viability, Bak-/- Bax-/- murine embryonic fibroblasts; format: cell-based; conditions: 48 h
Procedure: Supplementary Figure 4. […] Murine embryonic fibroblasts (MEFs) lacking Bak and Bax were treated with increasing concentrations of A-1155905, A-1208746, A-1210477, staurosporine or bortezomib for 48 h before assessing cell viability. Data represent the mean of triplicate experiments and error bars indicate the standard error of the mean.

H929 cells [2] = assay: Hallmarks of apoptosis in H929 cells (caspase-3/-7, mitochondrial membrane depolarization, phosphatidylserine); format: cell-based, human; conditions: H929, 4 h
Procedure: as §1, §2

RS4;11 cell line = assay: Cell viability, RS4;11 cells; format: cell-based; conditions: RS4;11, 48 h
Procedure: as §1, with “experiments. Error bars represent the S.E.M. (c) H929 cells were incubated with increasing concentrations of MCL-1 inhibitors in the presence or absence of the pan-caspase inhibitor QVD (100 μM) for 4 h before assessing caspase-3/-7 activation, mitochondrial membrane polarization, and the exposure of phosphatidylserine.” for “experiments.”
(§3) Adherent cell lines were seeded at 50 000 cells per well in 96-well plates and treated for 48 h with compounds diluted in half-log steps starting at 30 μM and ending at 0.001 μM. […] Effects on proliferation and viability were determined using CellTiter-Glo reagent from Promega (Madison, WI, USA) according to the manufacturer's instructions. IC50 values were determined by non-linear regression analysis of the concentration response data.

H929 cells [3] = assay: Cell viability, H929 cells; format: cell-based, human; conditions: H929, 48 h
Procedure: as §1, with “experiments. Error bars represent the S.E.M. (c) H929 cells were incubated with increasing concentrations of MCL-1 inhibitors in the presence or absence of the pan-caspase inhibitor QVD (100 μM) for 4 h before assessing caspase-3/-7 activation, mitochondrial membrane polarization, and the exposure of phosphatidylserine.” for “experiments.”
as §3

H23 cells = assay: Navitoclax / A-1210477 combination cell viability, H23 cells; format: cell-based, human; conditions: H23, up to 3–5 μM, 48 h
Procedure: (§4) Figure 6 A-1210477 synergizes with navitoclax to kill hematological and solid tumor cell lines. BxPC-3, EJ-1, H23, and OPM-2 cells were treated with increasing concentrations of navitoclax in the presence or absence of increasing concentrations of A-1210477 for 48 h before assessing cell viability. All data points represent the means of triplicate experiments, with error bars indicating the S.E.M. TEXT PRINTED IN THE PICTURE: A-1210477 + navitoclax: Bliss sum (BxPC-3): 716; Bliss sum (EJ-1): 464; Bliss sum (H23): 76; Bliss sum (OPM-2): 946 DOUBTS OF THE COPYIST ABOUT THIS PICTURE: The Bliss sums apply to the combination of A-1210477 and navitoclax. The picture prints the two names separately (legend heading and axis title), not as one joined label.
(§5) Adherent cell lines were seeded at 50 000 cells per well in 96-well plates and treated for 48 h with compounds diluted in half-log steps starting at 30 μM and ending at 0.001 μM. Multiple myeloma cell lines were seeded at 15 000–20 000 cells per well and treated similarly. Effects on proliferation and viability were determined using CellTiter-Glo reagent from Promega (Madison, WI, USA) according to the manufacturer's instructions. IC50 values were determined by non-linear regression analysis of the concentration response data.

BxPC-3 cells = assay: Navitoclax / A-1210477 combination cell viability, BxPC-3 cells; format: cell-based; conditions: BxPC-3, up to 3–5 μM, 48 h
Procedure: as §4, §5

OPM-2 cells = assay: Navitoclax / A-1210477 combination cell viability, OPM-2 cells; format: cell-based; conditions: OPM-2, up to 3–5 μM, 48 h
Procedure: as §4, §5

EJ-1 cells = assay: Navitoclax / A-1210477 combination cell viability, EJ-1 cells; format: cell-based; conditions: EJ-1, up to 3–5 μM, 48 h
Procedure: as §4, §5

BCL-XL–BAD complexes = molecular target: T1, BCL-XL–BAD complexes (Homo sapiens, UniProt Q07817); assay: Live cell redistribution assay, eGFP-BCL-XL and mCherry-BAD, T-REx-293 cells; format: cell-based; conditions: 10 μM, 300 min
T1 construct: expressed in transfected cells; host or cells: T-REx-293, bicistronic expression module integrated at a single genomic site
T1 sequence (Q07817 whole entry, one chain of several): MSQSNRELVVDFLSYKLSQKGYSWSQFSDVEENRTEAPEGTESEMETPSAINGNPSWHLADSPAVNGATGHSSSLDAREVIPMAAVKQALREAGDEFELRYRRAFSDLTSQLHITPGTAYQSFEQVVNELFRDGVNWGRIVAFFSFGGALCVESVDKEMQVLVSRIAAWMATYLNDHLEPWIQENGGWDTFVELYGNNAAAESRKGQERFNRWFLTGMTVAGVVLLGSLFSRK
Source text: (§6) To further rule out potential artifacts associated with lysate detergents that can influence interactions between BCL-2 family proteins,[47] we employed a recently described real-time imaging method to assess the effects on BCL-2 family complexes in live cells.[48] Briefly, interacting pairs of BCL-2 family proteins are expressed as fluorescent fusion proteins at stoichiometric levels from a bicistronic expression module integrated into a single site of the genome in T-REx-293 cells. […]
(§7) Figure 3 A-1210477 inhibits MCL-1-BIM complexes in live cells. […] The decrease in amount of mCherry-BH3 protein localized to the mitochondria was quantified as a function of time as described in the Materials and Methods, normalized to DMSO control, and fitted to a single exponential decay. Each data point represents the mean change in intensity calculated from 10 fields of view, with error bars indicating the S.E.M. (b) T-REx-293 cells stably expressing eGFP-MCL-1(3B) and mCherry-BIMS(2A)ΔC were treated with 50 μM ABT-737 or increasing concentrations (1–25 μM) A-1210477 for 100 min. The decrease in amount of mCherry-BIMS(2A)ΔC localized to the mitochondria was quantified as in panel (a). (c) Representative fluorescence microscopic images of T-REx-293 cells stably expressing eGFP-BCL-2 family and interacting mCherry-BH3-only proteins before and after 300 min of treatment with 10 μM A-1210477 or (d) ABT-737. […]

BCL-2–BAD complexes = molecular target: T2, BCL-2–BAD complexes (Homo sapiens, UniProt P10415); assay: Live cell redistribution assay, eGFP-BCL-2 and mCherry-BAD, T-REx-293 cells; format: cell-based; conditions: 10 μM, 300 min
T2 construct: expressed in transfected cells; host or cells: T-REx-293, bicistronic expression module integrated at a single genomic site
T2 sequence (P10415 whole entry, one chain of several): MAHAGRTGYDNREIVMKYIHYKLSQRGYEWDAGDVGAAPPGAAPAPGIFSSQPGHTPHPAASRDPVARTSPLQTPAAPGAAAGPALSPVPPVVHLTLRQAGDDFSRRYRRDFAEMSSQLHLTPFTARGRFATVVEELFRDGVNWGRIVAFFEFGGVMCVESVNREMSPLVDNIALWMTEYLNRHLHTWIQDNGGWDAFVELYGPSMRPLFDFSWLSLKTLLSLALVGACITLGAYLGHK
Source text: as §6, §7

[4] = system: MCL-1(3B)–BIMS(2A)ΔC complexes; assay: Live cell redistribution assay, eGFP-MCL-1(3B) and mCherry-BIMS(2A)ΔC, T-REx-293 cells; format: cell-based; conditions: T-REx-293 cells expressing MCL-1(3B)
Source text: To further rule out potential artifacts associated with lysate detergents that can influence interactions between BCL-2 family proteins,[47] we employed a recently described real-time imaging method to assess the effects on BCL-2 family complexes in live cells.[48] Briefly, interacting pairs of BCL-2 family proteins are expressed as fluorescent fusion proteins at stoichiometric levels from a bicistronic expression module integrated into a single site of the genome in T-REx-293 cells. Under basal conditions, both proteins localize primarily to the mitochondria, where the anti-apoptotic proteins (enhanced green fluorescent protein (eGFP)-BCL-2, eGFP-BCL-XL, or eGFP-MCL-1(3B)) sequester their pro-apoptotic counterparts (mCherry-BAD or mCherry-BIMS(2A)ΔC, the latter being a specific binder of MCL-1[48], [49]). Disruption of these complexes can be tracked by measuring the amount of mCherry-labeled BH3-only protein localized specifically to the mitochondria. […]
as §7
Experiments were carried out as detailed previously.[48] […] Therefore, the entire cell was identified with a single intensity threshold applied to the eGFP fluorescence, excluding areas identified as mitochondria. […]

Cc1nn(C)c(COc2ccc(N3CCN(S(C)(=O)=O)CC3)cc2)c1-c1cccc2c(CCCOc3cccc4ccccc34)c(C(=O)O)n(CCN3CCOCC3)c12 [A-1208746]
lowest concentration at which cytochrome c was observed in cytosolic fractions (H929 cells [1]): 3 µM | killing of Bak-/- Bax-/- MEFs (Bak-/- Bax-/- MEFs): do not Kill | induction of hallmarks of apoptosis (mitochondrial membrane depolarization, caspase-3/-7 activation, phosphatidylserine externalization) (H929 cells [2]): induced the hallmarks of apoptosis | effect on cell viability (RS4;11 cell line): no effect | cell killing IC50 (H929 cells [3]): low-μM range

CC1(C)CCC(c2ccc(Cl)cc2)=C(CN2CCN(c3ccc(C(=O)NS(=O)(=O)c4ccc(N[C@H](CCN5CCOCC5)CSc5ccccc5)c(S(=O)(=O)C(F)(F)F)c4)cc3)CC2)C1 [navitoclax, reference compound]
single agent effect on cell viability (H23 cells): little or no effect | single agent effect on cell viability (BxPC-3 cells): little or no effect | single agent effect on cell viability (OPM-2 cells): little or no effect | single agent effect on cell viability (EJ-1 cells): little or no effect

CN(C)CC[C@H](CSc1ccccc1)Nc1ccc(S(=O)(=O)NC(=O)c2ccc(N3CCN(Cc4ccccc4-c4ccc(Cl)cc4)CC3)cc2)cc1[N+](=O)[O-] [ABT-737, reference compound]
redistribution of mCherry-BAD associated with BCL-XL (BCL-XL–BAD complexes): induced the redistribution of mCherry-BAD | redistribution of mCherry-BAD associated with BCL-2 (BCL-2–BAD complexes): induced the redistribution of mCherry-BAD | redistribution of mCherry-BIMS(2A)ΔC from mitochondria [4]: no effect

Reference: paper PMC4669759 (Cell Death & Disease, 2015)
